Literature values as cited in patent US9927424B2, “Assays for identifying compounds that modulate bitter taste” (Chromocell Corporation, priority 2013, dated 2018).

Experiments:
Conditions in all cases: PCT/US12/61400; cited from earlier work
[1] = target: T1, TAS2R44 (Homo sapiens, UniProt P59538)
T1 construct: expressed in transfected cells
T1 sequence (P59538 1-309): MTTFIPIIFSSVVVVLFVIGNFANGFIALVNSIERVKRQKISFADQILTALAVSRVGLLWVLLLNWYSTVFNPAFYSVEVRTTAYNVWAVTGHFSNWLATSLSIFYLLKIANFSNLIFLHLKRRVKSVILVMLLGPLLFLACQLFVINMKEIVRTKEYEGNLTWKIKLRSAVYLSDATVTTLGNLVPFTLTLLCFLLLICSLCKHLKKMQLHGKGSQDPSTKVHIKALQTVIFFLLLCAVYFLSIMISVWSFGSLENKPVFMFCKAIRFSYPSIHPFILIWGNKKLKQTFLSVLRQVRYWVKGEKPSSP

[2] = target: T2, TAS2R60 (Homo sapiens, UniProt P59551)
T2 construct: expressed in transfected cells
T2 sequence (P59551 1-318): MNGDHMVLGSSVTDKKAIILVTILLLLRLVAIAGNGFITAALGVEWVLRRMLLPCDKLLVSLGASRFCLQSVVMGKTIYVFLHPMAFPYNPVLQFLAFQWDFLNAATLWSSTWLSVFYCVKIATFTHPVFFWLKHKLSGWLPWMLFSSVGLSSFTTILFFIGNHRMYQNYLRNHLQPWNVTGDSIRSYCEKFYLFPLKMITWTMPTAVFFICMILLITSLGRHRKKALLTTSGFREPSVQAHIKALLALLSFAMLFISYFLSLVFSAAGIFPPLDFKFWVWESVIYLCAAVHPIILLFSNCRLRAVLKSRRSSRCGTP

[3] = target: T3, TAS2R9 (Homo sapiens, UniProt Q9NYW1)
T3 construct: expressed in transfected cells
T3 sequence (Q9NYW1 1-312): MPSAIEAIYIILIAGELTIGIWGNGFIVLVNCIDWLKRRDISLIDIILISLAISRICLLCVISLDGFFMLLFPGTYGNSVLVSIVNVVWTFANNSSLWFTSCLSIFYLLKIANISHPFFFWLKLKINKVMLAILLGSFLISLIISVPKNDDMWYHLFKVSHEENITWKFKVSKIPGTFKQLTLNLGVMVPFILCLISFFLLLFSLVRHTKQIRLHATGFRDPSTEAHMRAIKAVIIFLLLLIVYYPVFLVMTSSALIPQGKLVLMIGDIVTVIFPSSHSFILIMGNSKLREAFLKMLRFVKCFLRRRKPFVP

[4] = target: T4, TAS2R4 (Homo sapiens, UniProt Q9NYW5)
T4 construct: expressed in transfected cells
T4 sequence (Q9NYW5 1-299): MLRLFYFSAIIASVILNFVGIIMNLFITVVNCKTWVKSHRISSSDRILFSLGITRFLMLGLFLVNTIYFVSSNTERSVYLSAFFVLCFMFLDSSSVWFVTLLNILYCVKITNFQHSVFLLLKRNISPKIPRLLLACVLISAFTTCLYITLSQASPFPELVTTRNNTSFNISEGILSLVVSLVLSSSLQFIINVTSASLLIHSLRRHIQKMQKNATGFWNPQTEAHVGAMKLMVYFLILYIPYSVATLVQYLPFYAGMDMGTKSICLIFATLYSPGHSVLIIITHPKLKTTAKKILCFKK

[Cl-].[K+] [KCl]
specifically respond: TAS2R44 response to stimulation, previously shown [1] | TAS2R60 response to stimulation, previously shown [2] | TAS2R9 response to stimulation, previously shown [3] | TAS2R4 response to stimulation, previously shown [4]
